Results reported in ChEMBL document CHEMBL1201862, “PubChem BioAssay data set” (2004).
Active and inactive are the calls of the source.

Tests used:
[1] = target: Glucose-6-phosphate 1-dehydrogenase (Homo sapiens, UniProt P11413); test: human G6PD enzyme inhibitors, dose response, selectivity assay for P. falciparum G6PD inhibitor project, biochemical, fluorescence (AID 504792); type: functional
[2] = system: HeLa; test: HeLa cell cytotoxicity, dose response, cytotoxicity control, 24 h, cherry-picked samples (AID 504726); type: functional, cell-based; details: Homo sapiens;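 further: potency for cytotoxicity as loss of luminescence signal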
[3] = target: ORF 73 (Human herpesvirus 8, UniProt O40947); test: inhibitors of C-LANA binding to LBS DNA, dose response, biochemical, fluorescence polarization, cherry-picked samples (AID 504725); parameters: species or system Human gammaherpesvirus 8;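 further: fluorescence polarization of a labeled DNA duplex reporting LANA DNA binding; potency is for inhibitors that block LANA binding to the DNA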
Chain of ORF 73 (O40947 whole entry): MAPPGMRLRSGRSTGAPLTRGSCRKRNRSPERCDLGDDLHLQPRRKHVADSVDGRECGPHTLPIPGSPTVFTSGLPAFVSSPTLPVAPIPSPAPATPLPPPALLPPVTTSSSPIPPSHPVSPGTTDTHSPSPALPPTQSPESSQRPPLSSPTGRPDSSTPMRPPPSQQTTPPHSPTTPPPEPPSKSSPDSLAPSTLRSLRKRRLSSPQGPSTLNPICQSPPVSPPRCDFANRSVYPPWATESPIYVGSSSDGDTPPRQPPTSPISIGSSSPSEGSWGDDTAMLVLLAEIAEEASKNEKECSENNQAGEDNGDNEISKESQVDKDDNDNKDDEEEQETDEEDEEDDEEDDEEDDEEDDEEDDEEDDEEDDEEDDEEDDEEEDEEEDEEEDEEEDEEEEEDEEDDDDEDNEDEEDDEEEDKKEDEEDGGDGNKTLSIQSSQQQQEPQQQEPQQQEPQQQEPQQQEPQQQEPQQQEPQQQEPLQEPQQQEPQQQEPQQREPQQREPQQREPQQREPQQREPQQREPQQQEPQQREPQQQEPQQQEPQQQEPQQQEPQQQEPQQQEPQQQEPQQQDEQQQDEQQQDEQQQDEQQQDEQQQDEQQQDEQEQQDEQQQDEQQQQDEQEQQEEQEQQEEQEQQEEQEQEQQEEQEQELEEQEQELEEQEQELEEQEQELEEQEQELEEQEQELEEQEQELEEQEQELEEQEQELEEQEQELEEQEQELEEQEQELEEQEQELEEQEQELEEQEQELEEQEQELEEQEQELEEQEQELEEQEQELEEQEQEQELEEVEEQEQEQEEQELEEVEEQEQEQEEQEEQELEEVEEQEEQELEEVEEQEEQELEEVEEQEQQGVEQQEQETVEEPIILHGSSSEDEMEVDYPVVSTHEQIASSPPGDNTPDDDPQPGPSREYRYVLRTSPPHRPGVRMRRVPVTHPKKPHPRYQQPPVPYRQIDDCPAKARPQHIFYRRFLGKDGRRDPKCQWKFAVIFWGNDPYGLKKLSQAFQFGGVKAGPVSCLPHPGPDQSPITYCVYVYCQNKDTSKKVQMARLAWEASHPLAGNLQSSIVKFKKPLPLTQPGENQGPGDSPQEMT

[4] = target: Troponin, cardiac muscle (Homo sapiens, UniProt P19429+P45379+P63316); test: inhibitors of cardiac thin filament calcium sensitivity, dose response, biochemical, fluorescence, cardiac regulated thin filaments, triplicate IC50 (AID 504742); type: protein-complex assay
[5] = target: Genome polyprotein (dengue virus type 2, UniProt P29990); test: Dengue-2 NS5 methyltransferase inhibitors, primary screen, biochemical, confirmation dose response (AID 588689); type: functional
Chain of Genome polyprotein (P29990 2492-3391 limits assumed): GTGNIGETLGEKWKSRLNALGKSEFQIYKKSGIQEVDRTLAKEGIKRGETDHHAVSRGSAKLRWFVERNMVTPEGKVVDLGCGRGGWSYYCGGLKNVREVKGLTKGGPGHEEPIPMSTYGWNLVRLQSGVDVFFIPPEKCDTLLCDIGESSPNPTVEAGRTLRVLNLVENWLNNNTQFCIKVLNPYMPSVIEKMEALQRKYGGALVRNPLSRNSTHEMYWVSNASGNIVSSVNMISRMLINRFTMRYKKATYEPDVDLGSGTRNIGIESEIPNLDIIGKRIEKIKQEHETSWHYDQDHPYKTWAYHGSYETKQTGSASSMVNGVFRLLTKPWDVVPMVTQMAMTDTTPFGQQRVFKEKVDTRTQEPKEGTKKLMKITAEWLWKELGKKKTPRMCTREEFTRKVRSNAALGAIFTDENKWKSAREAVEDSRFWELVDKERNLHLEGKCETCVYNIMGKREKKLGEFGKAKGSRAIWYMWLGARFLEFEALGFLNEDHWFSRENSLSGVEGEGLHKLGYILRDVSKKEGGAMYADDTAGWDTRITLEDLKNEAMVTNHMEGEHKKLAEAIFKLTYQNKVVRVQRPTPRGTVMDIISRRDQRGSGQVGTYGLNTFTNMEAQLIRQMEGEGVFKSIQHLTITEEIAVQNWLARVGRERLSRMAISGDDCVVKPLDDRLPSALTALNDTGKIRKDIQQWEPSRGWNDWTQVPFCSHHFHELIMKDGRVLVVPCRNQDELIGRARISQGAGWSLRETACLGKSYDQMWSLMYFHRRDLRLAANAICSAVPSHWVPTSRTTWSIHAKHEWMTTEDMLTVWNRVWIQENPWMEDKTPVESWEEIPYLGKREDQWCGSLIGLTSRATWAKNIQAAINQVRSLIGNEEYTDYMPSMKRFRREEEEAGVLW

[6] = NIH-3T3 fibroblast cytotoxicity, dose response, cytotoxicity control, cell-based, fluorescence, Alamar Blue, secondary assay (AID 2327); type: functional;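 further: NIH-3T3 mouse fibroblasts cultured with fluconazole at 8 µg/mL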
[7] = C. albicans growth with fluconazole, confirmation, fluorescence, retest (AID 2467); type: functional, cell-based
[8] = target: NACHT, LRR and PYD domains-containing protein 3 (Homo sapiens, UniProt Q96P20); test: NALP3 inhibitors in yeast, dose response, luminescent (AID 488799); type: functional
[9] = system: Streptococcus sp. 'group A'; test: growth inhibition of control SK(-) GAS strain, dose response, counter-screen for streptokinase expression inhibitor project, luminescence, kanamycin, BacTiterGlo, confirmation (AID 1900); type: functional, organism-based
[10] = system: Streptococcus; test: Luminescence Microorganism-Based Dose Response Follow up to Identify Compounds Cytotoxic to Streptococcus. [Related pubchem assays: 1677 (Project Summary), 1915, 1914, 1902 (Retest at Dose), 1900 (Counter Screen), 1662 (Primary HTS)]; type: functional, organism-based
[11] = target: T1, Streptokinase A (Streptococcus pyogenes serotype M1, UniProt P10520); test: S. pyogenes streptokinase expression inhibitors, potency, dose response, plasminogen activation absorbance, OD405 (AID 1914); type: functional, Streptococcus pyogenes M1 GAS;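 further: secreted streptokinase activity via plasminogen activation per viability signal from cell pellet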
T1 sequence (P10520 whole entry): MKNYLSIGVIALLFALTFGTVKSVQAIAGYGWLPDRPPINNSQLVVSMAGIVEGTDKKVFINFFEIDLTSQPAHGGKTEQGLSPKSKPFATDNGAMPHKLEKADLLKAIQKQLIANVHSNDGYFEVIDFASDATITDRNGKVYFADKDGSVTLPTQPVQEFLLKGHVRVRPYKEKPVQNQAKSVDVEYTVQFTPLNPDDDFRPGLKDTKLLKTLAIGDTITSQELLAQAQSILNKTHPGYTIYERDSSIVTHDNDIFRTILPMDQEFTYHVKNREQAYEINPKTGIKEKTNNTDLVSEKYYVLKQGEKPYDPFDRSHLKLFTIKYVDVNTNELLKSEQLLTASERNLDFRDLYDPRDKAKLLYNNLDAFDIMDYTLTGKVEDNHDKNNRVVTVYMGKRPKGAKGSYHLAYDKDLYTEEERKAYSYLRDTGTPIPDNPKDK

[12] = target: T1, Streptokinase A; test: Absorbance Microorganism-Based Dose Response Follow up to Identify Inhibitors of Streptokinase Expression. [Related pubchem assays: 1677 (Project Summary), 1915, 1914, 1902 (Retest at Dose), 1900 (Counter Screen), 1662 (Primary HTS)]; type: functional, Streptococcus pyogenes M1 GAS
[13] = system: Streptococcus; test: Streptococcus pyogenes growth inhibition counter-screen, dose response, counter-screen for streptokinase expression inhibitor project, luminescence, BacTiter-Glo, strain UMAA2166 (AID 2477); type: functional, organism-based
[14] = system: Streptococcus; test: Group A Streptococcus viability loss, dose response, counter-screen for streptokinase expression inhibitor project, luminescence, BacTiterGlo (AID 1915); type: functional, organism-based;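 further: potency for reduction of bacterial viability or growth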
[15] = Absorbance Microorganism-Based Dose Response Follow up to Identify Inhibitors of Streptokinase Expression. [Related pubchem assays: 1677 (Project Summary), 1915, 1914, 1902 (Retest at Dose), 1900 (Counter Screen), 1662 (Primary HTS)]
[16] = target: Transitional endoplasmic reticulum ATPase (Homo sapiens, UniProt P55072, C522A); test: C522A mutant p97 ATPase inhibitors, dose response, counter-screen for p97 inhibitor project, biochemical, luminescence (AID 1544)
Chain of Transitional endoplasmic reticulum ATPase (Homo sapiens, UniProt P55072, C522A) (P55072 2-806 C522A limits assumed): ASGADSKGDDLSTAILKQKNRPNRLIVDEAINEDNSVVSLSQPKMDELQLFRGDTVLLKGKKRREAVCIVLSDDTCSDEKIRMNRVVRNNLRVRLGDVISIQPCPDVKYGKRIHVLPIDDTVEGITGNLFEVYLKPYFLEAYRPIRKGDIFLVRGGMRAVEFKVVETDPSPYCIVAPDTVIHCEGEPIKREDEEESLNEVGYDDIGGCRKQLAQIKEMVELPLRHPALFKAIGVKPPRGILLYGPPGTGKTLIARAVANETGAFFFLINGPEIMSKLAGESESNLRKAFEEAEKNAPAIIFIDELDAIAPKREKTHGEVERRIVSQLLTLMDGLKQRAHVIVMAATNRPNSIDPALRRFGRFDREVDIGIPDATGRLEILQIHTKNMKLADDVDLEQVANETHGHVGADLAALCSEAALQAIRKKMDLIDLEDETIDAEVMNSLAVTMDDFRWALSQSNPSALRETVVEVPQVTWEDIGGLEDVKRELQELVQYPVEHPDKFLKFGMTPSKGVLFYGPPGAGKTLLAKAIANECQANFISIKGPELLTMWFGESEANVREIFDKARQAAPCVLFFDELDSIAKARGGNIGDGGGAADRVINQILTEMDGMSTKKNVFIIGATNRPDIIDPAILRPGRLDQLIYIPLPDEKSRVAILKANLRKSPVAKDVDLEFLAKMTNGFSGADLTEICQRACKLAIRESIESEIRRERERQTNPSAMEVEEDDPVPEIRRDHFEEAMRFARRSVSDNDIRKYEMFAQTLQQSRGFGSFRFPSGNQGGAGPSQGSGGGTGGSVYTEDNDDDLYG

[17] = target: Transitional endoplasmic reticulum ATPase (Homo sapiens, UniProt P55072); test: p97 ATPase inhibitors, dose response, biochemical (AID 1534)
Chain of Transitional endoplasmic reticulum ATPase (Homo sapiens, UniProt P55072) (P55072 whole entry): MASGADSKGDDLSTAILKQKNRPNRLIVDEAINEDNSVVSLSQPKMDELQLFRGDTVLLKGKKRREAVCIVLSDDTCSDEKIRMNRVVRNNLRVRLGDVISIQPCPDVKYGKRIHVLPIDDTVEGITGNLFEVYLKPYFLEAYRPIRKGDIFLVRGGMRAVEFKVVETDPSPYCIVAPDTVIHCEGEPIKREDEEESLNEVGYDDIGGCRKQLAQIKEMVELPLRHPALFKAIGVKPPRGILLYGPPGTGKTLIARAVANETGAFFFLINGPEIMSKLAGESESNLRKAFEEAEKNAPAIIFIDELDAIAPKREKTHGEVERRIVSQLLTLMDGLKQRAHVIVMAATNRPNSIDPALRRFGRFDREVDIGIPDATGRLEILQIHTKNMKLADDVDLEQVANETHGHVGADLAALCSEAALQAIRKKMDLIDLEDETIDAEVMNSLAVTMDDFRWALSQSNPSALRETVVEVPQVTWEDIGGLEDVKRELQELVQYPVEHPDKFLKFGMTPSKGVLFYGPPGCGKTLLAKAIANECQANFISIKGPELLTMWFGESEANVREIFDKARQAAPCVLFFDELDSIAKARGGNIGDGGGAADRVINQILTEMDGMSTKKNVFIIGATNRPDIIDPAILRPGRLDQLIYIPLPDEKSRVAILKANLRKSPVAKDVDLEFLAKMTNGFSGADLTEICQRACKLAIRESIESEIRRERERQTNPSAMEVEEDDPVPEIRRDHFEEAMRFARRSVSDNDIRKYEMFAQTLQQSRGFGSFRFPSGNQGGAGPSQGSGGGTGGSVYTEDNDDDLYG

[18] = target: Induced myeloid leukemia cell differentiation protein Mcl-1 (Homo sapiens, UniProt Q07820); type: functional
Chain of Induced myeloid leukemia cell differentiation protein Mcl-1 (Q07820 whole entry): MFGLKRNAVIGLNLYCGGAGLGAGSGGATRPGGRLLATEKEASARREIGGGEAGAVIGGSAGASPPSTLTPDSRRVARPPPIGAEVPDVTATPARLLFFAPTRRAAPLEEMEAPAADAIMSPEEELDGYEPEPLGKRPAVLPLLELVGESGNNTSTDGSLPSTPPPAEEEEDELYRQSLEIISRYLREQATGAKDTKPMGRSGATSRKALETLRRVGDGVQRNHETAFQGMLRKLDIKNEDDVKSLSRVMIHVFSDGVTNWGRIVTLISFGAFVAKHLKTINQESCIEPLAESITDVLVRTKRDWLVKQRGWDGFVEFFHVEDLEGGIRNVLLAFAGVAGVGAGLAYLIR

[19] = system: HEK293; test: Fluorescence-based counterscreen for potentiators or agonists of NPY-Y2: cell-based high-throughput dose response assay to identify inhibitors of cyclic nucleotide gated ion channel (CNGC) activity. In this assay, the parental HEK293 cell line transfected with a cyclic-nucleotide gated ion channel (CNGC)-based cAMP sensor is used to measure inhibition of isoproterenol-induced CNGC activity by test compound.; type: functional; details: Homo sapiens;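 further: stimulus is 1 µM isoproterenol at EC100 plus PDE inhibitor Ro 20-1724 at 25 µM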
[20] = target: T2, Neuropeptide Y receptor type 2 (Homo sapiens, UniProt P49146); test: Fluorescence-based cell-based high-throughput dose response assay for agonists of NPY-Y2. [Related pubchem assays: 1703 (Screening assay (CNGC inhibitors).), 1359 (Screening assay (NPY-Y2 potentiators or agonists).), 1304 (Screening assay (NPY-Y1 potentiators or agonists).), 1710 (Screening assay (NPY-Y2 agonists).), 1791 (Summary AID.)]; type: functional
T2 sequence (P49146 whole entry): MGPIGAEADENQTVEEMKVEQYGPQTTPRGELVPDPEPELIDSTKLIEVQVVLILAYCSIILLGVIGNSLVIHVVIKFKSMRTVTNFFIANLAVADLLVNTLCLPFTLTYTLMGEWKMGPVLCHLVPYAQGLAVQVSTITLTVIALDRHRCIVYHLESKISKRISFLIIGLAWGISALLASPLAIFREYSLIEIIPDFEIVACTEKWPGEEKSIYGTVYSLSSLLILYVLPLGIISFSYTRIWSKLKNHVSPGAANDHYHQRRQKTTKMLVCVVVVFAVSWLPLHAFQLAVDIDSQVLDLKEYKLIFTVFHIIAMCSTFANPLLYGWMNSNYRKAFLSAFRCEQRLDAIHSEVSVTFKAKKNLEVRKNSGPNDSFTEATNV

[21] = inhibitors of intracellular T. cruzi replication, confirmation, NIH3T3 host cells, beta-gal luminescence (AID 2044); type: functional, cell-based;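 further: intracellular parasites grown in NIH/3T3 mouse fibroblasts as host cells; luminescent beta-galactosidase reporter signal from transgenic T. cruzi replicating inside host cells; inhibitors lower the luminescence signal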
[22] = target: T3, Neuropeptide Y receptor type 1 (Homo sapiens, UniProt P25929); test: Fluorescence-based counterscreen for agonists of NPY-Y2: cell-based high-throughput dose response assay for agonists of NPY-Y1.; type: functional
T3 sequence (P25929 whole entry): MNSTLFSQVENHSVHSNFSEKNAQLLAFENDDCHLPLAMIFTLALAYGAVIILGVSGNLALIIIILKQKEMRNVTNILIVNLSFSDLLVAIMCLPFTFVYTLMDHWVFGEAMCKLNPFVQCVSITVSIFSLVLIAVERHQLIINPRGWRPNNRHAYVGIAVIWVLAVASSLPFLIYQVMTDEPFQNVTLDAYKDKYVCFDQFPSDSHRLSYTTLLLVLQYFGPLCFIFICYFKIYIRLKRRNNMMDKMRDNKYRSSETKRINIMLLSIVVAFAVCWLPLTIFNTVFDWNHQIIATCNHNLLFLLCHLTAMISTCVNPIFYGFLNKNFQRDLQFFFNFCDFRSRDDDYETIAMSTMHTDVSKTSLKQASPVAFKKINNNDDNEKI

[23] = cytotoxicity toward NIH3T3 fibroblasts, dose response, counter-screen, cell-based, ATP luminescence, mouse fibroblasts (AID 2010); type: functional;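 further: cells exposed to compound for about 90 hours before reading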
[24] = THP-1 cell cytotoxicity, dose response, cytotoxicity control for Vif-APOBEC3G degradation inhibitor project, THP-1 cells (AID 1117359); type: functional; details: Human immunodeficiency virus 1, THP-1
[25] = inhibitors of Vif binding to APOBEC3G peptide, primary screen, biochemical, TR-FRET, GST-Vif 1-94, biotin-A3G peptide, dose response retest (AID 1117319); type: functional;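 further: TR-FRET signal of purified GST-Vif binding a biotinylated A3G peptide; inhibitors lower the FRET signal by blocking Vif and A3G binding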

Chain of Glucose-6-phosphate 1-dehydrogenase (P11413 whole entry): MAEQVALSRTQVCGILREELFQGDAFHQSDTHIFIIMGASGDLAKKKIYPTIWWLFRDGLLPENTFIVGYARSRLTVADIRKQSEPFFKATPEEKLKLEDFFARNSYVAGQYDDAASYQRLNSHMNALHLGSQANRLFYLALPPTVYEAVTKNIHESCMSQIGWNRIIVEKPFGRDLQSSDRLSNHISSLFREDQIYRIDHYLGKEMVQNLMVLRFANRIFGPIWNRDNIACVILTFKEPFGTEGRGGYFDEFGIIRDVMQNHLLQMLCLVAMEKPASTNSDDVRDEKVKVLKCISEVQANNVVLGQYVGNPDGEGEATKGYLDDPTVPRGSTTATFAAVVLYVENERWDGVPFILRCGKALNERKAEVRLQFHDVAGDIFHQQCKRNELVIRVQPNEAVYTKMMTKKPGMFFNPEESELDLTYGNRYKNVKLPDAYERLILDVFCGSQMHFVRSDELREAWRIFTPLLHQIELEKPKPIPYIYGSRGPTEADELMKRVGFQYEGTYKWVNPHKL

In the case of `O=C1C=CC2=C3c4cc(O)c(O)cc4CC3(O)COC2=C1O` (stereo unspecified), the IC50 [1] is reported as > 80 µM (inactive), the AC50 [2] is reported as 179 µM (active) and the AC50 [3] is reported as 40.3 µM (active). The IC50 [4] was 16.6 µM (inactive) and the IC50 [5] was 26.5 µM (active).

With `c1ccc(Sc2cccc3ccccc23)c(CNC2=NCCN2)c1` the EC50 [6] was > 150 µM (inactive), the EC50 [7] was 3.8 µM (active) and the IC50 [8] was 11.7 µM (active).

For `CCCOc1ccc(-c2nc(OC)c3ccccc3n2)cc1`, the EC50 [9] was 17.9 µM (active), the EC50 [10] was > 500 µM (not active) and the EC50 [11] was 6.02 µM (active). For the same compound, the EC50 [12] was 3.83 µM (active), the EC50 [13] was > 500 µM (not active) and the EC50 [14] was > 150 µM (not active). The EC50 [15] was 4.03 µM (active).

In the case of `O=C(O[C@@H]1OC2COC(=O)c3cc(O)c(O)c(O)c3-c3c(cc(O)c(O)c3O)C(=O)O[C@@H]([C@H]1O)[C@@H]2O)c1cc(O)c(O)c(O)c1`, the IC50 [16] is reported as > 50 µM (not active), the IC50 [17] is reported as 4.2 µM (active) and the IC50 [18] is reported as 4.48 µM (active). The IC50 [4] was 0.677 µM (active).

For `COc1ccc(NC(=O)c2c(OC)cccc2OC)c(OC)c1`, the EC50 [19] was > 35.4 µM (not active), the EC50 [20] was > 35.4 µM (not active) and the EC50 [21] was 3.06 µM (active). The EC50 [22] was > 35.4 µM (not active), the EC50 [23] was > 60 µM (not active) and the CC50 [24] was > 40 µM (active). For the same compound, the IC50 [25] was > 60.5 µM (active).
